# pIC50: −log10 of the molar value.
# Biological target: CXCR4 (Homo sapiens, UniProt P61073)
# Experiment: fura-2 calcium mobilization in C8161 melanoma cells, antagonism of SDF-1
# Assay type: cell-based
# Chain of CXCR4 (P61073 whole entry): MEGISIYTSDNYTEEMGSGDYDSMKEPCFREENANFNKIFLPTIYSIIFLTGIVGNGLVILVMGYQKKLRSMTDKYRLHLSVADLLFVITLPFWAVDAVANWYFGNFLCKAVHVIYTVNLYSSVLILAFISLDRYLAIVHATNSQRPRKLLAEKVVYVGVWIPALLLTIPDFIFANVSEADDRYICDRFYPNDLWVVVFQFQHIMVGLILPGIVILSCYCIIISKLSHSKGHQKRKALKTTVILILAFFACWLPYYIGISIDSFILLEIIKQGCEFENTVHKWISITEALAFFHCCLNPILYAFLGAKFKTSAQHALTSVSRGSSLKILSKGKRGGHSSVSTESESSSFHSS
row,pIC50,Substance
1,6.52,NUCC-388
2,6.00,NUCC-392
3,6.00,NUCC-54120
